Source: ChEMBL document CHEMBL1201862, “PubChem BioAssay data set” (2004)
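Dose response: 5 concentrations. Exposure: 48 h. Format: 96-well plates. Endpoint: linear interpolation; highest concentration if not reached. GI50: concentration for 50% inhibition of growth.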 Active and inactive are the calls of the source. Cut-off read from the data, not from the text of the source: active = GI50 up to about 1.1 µM and inactive = higher.

Key:
Assay in all cases: inhibition of tumour cell growth, NCI panel, 48 h
[1] = system: 786-0
[2] = system: A498
[3] = system: A549
[4] = system: ACHN
[5] = system: BT-549
[6] = system: CAKI-1
[7] = system: CCRF-CEM
[8] = system: COLO 205
[9] = system: DU-145
[10] = system: EKVX
[11] = system: HCT-116
[12] = system: HCT-15
[13] = system: HL-60
[14] = system: HOP-62
[15] = system: HOP-92
[16] = system: HT-29
[17] = system: Hs-578T
[18] = system: IGROV-1
[19] = system: KM12
[20] = system: LOX IMVI
[21] = system: M14
[22] = system: MCF7
[23] = system: MDA-MB-231
[24] = system: MDA-MB-435
[25] = system: MDA-N
[26] = system: MOLT-4
[27] = system: Malme-3M
[28] = system: NCI-H23
[29] = system: NCI-H460
[30] = system: NCI-H522
[31] = system: NCI/ADR-RES
[32] = system: OVCAR-3
[33] = system: OVCAR-4
[34] = system: OVCAR-5
[35] = system: OVCAR-8
[36] = system: PC-3
[37] = system: RPMI-8226
[38] = system: RXF 393
[39] = system: SF-268
[40] = system: SF-295
[41] = system: SF-539
[42] = system: SK-MEL-28
[43] = system: SK-MEL-2
[44] = system: SK-MEL-5
[45] = system: SK-OV-3
[46] = system: SN12C
[47] = system: SNB-19
[48] = system: SW-620
[49] = system: T47D
[50] = system: TK-10
[51] = system: U-251
[52] = system: UACC-257
[53] = system: UACC-62
[54] = system: UO-31
[55] = system: HCC 2998
[56] = system: K562
[57] = system: NCI-H226
[58] = system: SNB-75

`CC(=O)N(C(C)=O)n1nc2c(n1)C(=O)c1ccccc1C2=O` was tested, and the GI50 [1] was > 100 µM (inactive), the GI50 [2] was > 100 µM (inactive) and the GI50 [3] was > 100 µM (inactive). The GI50 [4] was > 100 µM (inactive), the GI50 [5] was > 100 µM (inactive) and the GI50 [6] was > 100 µM (inactive). For the same compound, the GI50 [7] was > 100 µM (inactive), the GI50 [8] was > 100 µM (inactive) and the GI50 [9] was > 100 µM (inactive). For the same compound, the GI50 [10] was > 100 µM (inactive), the GI50 [11] was > 100 µM (inactive) and the GI50 [12] was > 100 µM. The GI50 [13] was > 100 µM (inactive), the GI50 [14] was > 100 µM (inactive) and the GI50 [15] was > 100 µM (inactive). For the same compound, the GI50 [16] was > 100 µM (inactive), the GI50 [17] was > 100 µM (inactive) and the GI50 [18] was > 100 µM (inactive). For the same compound, the GI50 [19] was > 100 µM (inactive), the GI50 [20] was > 100 µM (inactive) and the GI50 [21] was > 100 µM (inactive). For the same compound, the GI50 [22] was > 100 µM (inactive), the GI50 [23] was > 100 µM (inactive) and the GI50 [24] was > 100 µM (inactive). For the same compound, the GI50 [25] was > 100 µM (inactive), the GI50 [26] was > 100 µM (inactive) and the GI50 [27] was 68.1 µM (inactive). The GI50 [28] was > 100 µM (inactive), the GI50 [29] was > 100 µM (inactive) and the GI50 [30] was > 100 µM (inactive). The GI50 [31] was > 100 µM (inactive), the GI50 [32] was 28.1 µM (inactive) and the GI50 [33] was > 100 µM (inactive). For the same compound, the GI50 [34] was > 100 µM (inactive), the GI50 [35] was > 100 µM (inactive) and the GI50 [36] was > 100 µM (inactive). For the same compound, the GI50 [37] was > 100 µM (inactive), the GI50 [38] was > 100 µM (inactive) and the GI50 [39] was > 100 µM (inactive). For the same compound, the GI50 [40] was > 100 µM (inactive), the GI50 [41] was > 100 µM (inactive) and the GI50 [42] was > 100 µM (inactive). For the same compound, the GI50 [43] was > 100 µM (inactive), the GI50 [44] was > 100 µM (inactive) and the GI50 [45] was > 100 µM (inactive). For the same compound, the GI50 [46] was > 100 µM (inactive), the GI50 [47] was > 100 µM (inactive) and the GI50 [48] was > 100 µM (inactive). For the same compound, the GI50 [49] was > 100 µM (inactive), the GI50 [50] was > 100 µM (inactive) and the GI50 [51] was > 100 µM (inactive). The GI50 [52] was 81.5 µM (inactive), the GI50 [53] was > 100 µM (inactive) and the GI50 [54] was > 100 µM (inactive).
`NC(=O)NNCc1ccccc1` was tested, and the GI50 [1] was > 100 µM (inactive), the GI50 [2] was > 100 µM (inactive) and the GI50 [3] was > 100 µM (inactive). The GI50 [4] was > 100 µM (inactive), the GI50 [5] was > 100 µM (inactive) and the GI50 [6] was > 100 µM (inactive). For the same compound, the GI50 [7] was > 100 µM (inactive), the GI50 [8] was > 100 µM (inactive) and the GI50 [9] was > 100 µM (inactive). The GI50 [10] was > 100 µM (inactive), the GI50 [55] was > 100 µM (inactive) and the GI50 [11] was > 100 µM (inactive). The GI50 [12] was > 100 µM, the GI50 [13] was > 100 µM (inactive) and the GI50 [14] was > 100 µM (inactive). For the same compound, the GI50 [15] was 51.5 µM (inactive), the GI50 [16] was > 100 µM (inactive) and the GI50 [17] was > 100 µM (inactive). The GI50 [18] was > 100 µM (inactive), the GI50 [56] was > 100 µM (inactive) and the GI50 [19] was > 100 µM (inactive). The GI50 [20] was > 100 µM (inactive), the GI50 [21] was > 100 µM (inactive) and the GI50 [22] was > 100 µM (inactive). For the same compound, the GI50 [23] was > 100 µM (inactive), the GI50 [24] was > 100 µM (inactive) and the GI50 [25] was > 100 µM (inactive). The GI50 [26] was > 100 µM (inactive), the GI50 [57] was > 100 µM (inactive) and the GI50 [28] was > 100 µM (inactive). The GI50 [29] was > 100 µM (inactive), the GI50 [30] was > 100 µM (inactive) and the GI50 [31] was > 100 µM (inactive). The GI50 [32] was > 100 µM (inactive), the GI50 [33] was > 100 µM (inactive) and the GI50 [34] was > 100 µM (inactive). For the same compound, the GI50 [35] was > 100 µM (inactive), the GI50 [36] was > 100 µM (inactive) and the GI50 [37] was > 100 µM (inactive). For the same compound, the GI50 [38] was > 100 µM (inactive), the GI50 [39] was > 100 µM (inactive) and the GI50 [40] was > 100 µM (inactive). For the same compound, the GI50 [41] was > 100 µM (inactive), the GI50 [43] was > 100 µM (inactive) and the GI50 [44] was > 100 µM (inactive). For the same compound, the GI50 [45] was > 100 µM (inactive), the GI50 [46] was > 100 µM (inactive) and the GI50 [47] was > 100 µM (inactive). The GI50 [48] was > 100 µM (inactive), the GI50 [49] was > 100 µM (inactive) and the GI50 [50] was > 100 µM (inactive). The GI50 [51] was > 100 µM (inactive), the GI50 [52] was > 100 µM (inactive) and the GI50 [53] was > 100 µM (inactive). The GI50 [54] was > 100 µM (inactive).
For `COC(=O)Nc1nc2cc(NS(=O)(=O)c3ccc(Cl)cc3)ccc2[nH]1`, the GI50 [1] was 17.7 µM (inactive), the GI50 [2] was 3.05 µM (inactive) and the GI50 [3] was 15.9 µM (inactive). For the same compound, the GI50 [4] was 14.2 µM (inactive), the GI50 [5] was 13.4 µM (inactive) and the GI50 [6] was 3.78 µM (inactive). The GI50 [7] was 4.35 µM (inactive), the GI50 [8] was 9.1 µM (inactive) and the GI50 [9] was 20.4 µM (inactive). The GI50 [10] was 5.78 µM (inactive), the GI50 [11] was 2.45 µM (inactive) and the GI50 [12] was 6.44 µM. For the same compound, the GI50 [13] was 4.15 µM (inactive), the GI50 [14] was 10.7 µM (inactive) and the GI50 [15] was 1.84 µM (inactive). For the same compound, the GI50 [16] was 4.26 µM (inactive), the GI50 [17] was 1.99 µM (inactive) and the GI50 [18] was 2.59 µM (inactive). For the same compound, the GI50 [56] was 6.3 µM (inactive), the GI50 [19] was 3.61 µM (inactive) and the GI50 [20] was 4.44 µM (inactive). The GI50 [21] was 3.77 µM (inactive), the GI50 [22] was 4.08 µM (inactive) and the GI50 [23] was 8.34 µM (inactive). For the same compound, the GI50 [24] was 2.17 µM (inactive), the GI50 [25] was 2.18 µM (inactive) and the GI50 [26] was 4.53 µM (inactive). For the same compound, the GI50 [27] was 13.1 µM (inactive), the GI50 [57] was 10.6 µM (inactive) and the GI50 [28] was 9.93 µM (inactive). The GI50 [29] was 5.98 µM (inactive), the GI50 [30] was 3.4 µM (inactive) and the GI50 [31] was 8.59 µM (inactive). The GI50 [32] was 3.29 µM (inactive), the GI50 [33] was 13 µM (inactive) and the GI50 [34] was 17.9 µM (inactive). For the same compound, the GI50 [35] was 13 µM (inactive), the GI50 [36] was 8.55 µM (inactive) and the GI50 [37] was 6.75 µM (inactive). For the same compound, the GI50 [38] was 7.23 µM (inactive), the GI50 [39] was 10.4 µM (inactive) and the GI50 [40] was 4.45 µM (inactive). The GI50 [41] was 7.21 µM (inactive), the GI50 [42] was 6.79 µM (inactive) and the GI50 [43] was 6.37 µM (inactive). For the same compound, the GI50 [44] was 3.99 µM (inactive), the GI50 [45] was 12.2 µM (inactive) and the GI50 [46] was 16.3 µM (inactive). For the same compound, the GI50 [47] was 4.33 µM (inactive), the GI50 [58] was 2.35 µM (inactive) and the GI50 [48] was 5.11 µM (inactive). The GI50 [49] was 19.1 µM (inactive), the GI50 [50] was 2.7 µM (inactive) and the GI50 [51] was 12.2 µM (inactive). The GI50 [53] was 6.71 µM (inactive) and the GI50 [54] was 11.7 µM (inactive).
